From patent publication US20220378907A1, “METHODS FOR TREATING DISEASES” (CHILDREN'S HOSPITAL MEDICAL CENTER, priority 2019, published 2022)

Assays:
Format in all cases: cell-based, mouse
[1] = system: IL-1β production by BMDCs co-cultured with TH0 cells; test: Co-culture of BMDCs and effector CD4+ T cells (CD3 Ab), secreted IL-1β by ELISA or immunoblot; conditions: WT BMDCs + WT TH0 cells, IETD 10 μM, 18 h
Method: Cell culture treated plates were coated with αCD3 (5 μg mL^−1) and αCD28 (5 μg mL^−1) for 3-4 h at 37° C. CD4^+CD62L^hi naïve CD4^+ T cells were isolated from splenocytes using a Mojosort naïve CD4 T cell isolation kit according to manufacturer's protocol. Purified naïve T cells were plated in antibody-coated plates with appropriate polarizing conditions for 5 days. T cell were cultured in complete RPMI supplemented with 10% FCS. Cytokine cocktails for in vitro polarization: Thl — IL-12 (10 ng mL^−1, peprotech), IL-2 (50 U mL^−1, peprotech), αIL-4 (10 μg mL^−1, Biolegend); Th17-IL-6 (20 ng mL^−1, peprotech), hTGFβ (5 ng mL^−1, peprotech), αIL-4 (10 μg mL^−1, Biolegend), αIFNγ (10 μg mL^−1, Biolegend), IL-23 (20 ng mL^−1, Biolegend) and IL-1β (20 ng mL^−1, peprotech), Th2− IL-4 (4 ng mL^−1, peprotech), IL-2 (50 U mL^−1, Biolegend), and αIFNγ (10 μg mL^−1, Biolegend), Th0− IL-2 (50 U mL^−1). For co-culture experiments T cells were rested in 10% RPMI supplemented with IL-2 (10 U mL^−1) for 36 hrs before co-culture.
Mouse progenitors were isolated from bone marrow (femurs and tibias). […]
Cells were lysed in 1× RIPA Buffer and protein was quantified using Pierce™ BCA Protein Assay Kit. […] Western blot was develop using SuperSignal™ West Pico PLUS Chemiluminescent Substrate (Thermo Fisher) and ECL signal was recorded on X-Ray Films using a developer (Kodak).

[2] = system: pro-IL-1β in BMDCs; test: Co-culture of BMDCs and effector CD4+ T cells, pro-IL-1β by immunoblot or flow cytometry; conditions: WT BMDCs + WT TH0 cells, CD3 Ab, IETD 10 μM, 18 h
Method: 1 million DCs were cultured with 4 million T cells in 12 well plate. DC-T cell interaction was triggered by adding either αCD3ε (αCD3, 200 ng mL^−1) or OVA323-339 as described in the legends. In experiments measuring secreted IL-1β, IL-1R antagonist (50 ng mL^−1) was added 1 hr prior to DC stimulation to block IL-1β consumption. Co-cultures were also pretreated with neutralizing antibodies and inhibitor wherever described. Co-culture experiments were performed in complete RPMI supplemented with 10% FCS. For Western blot analysis of the culture supernatant cells were cultured in 1% FCS containing complete RPMI.
Cells were lysed in 1× RIPA Buffer and protein was quantified using Pierce™ BCA Protein Assay Kit. Cell lysates where boiled in 1× Laemmli buffer at 95° C. for 10 mins. Cell lysates were separated by SDS-PAGE and transferred onto PVDF membranes. Blots were incubated with anti-IL1β [1:1000] (R&D AF-401-SP), anti-caspase8 [1:1000] […] Western blot was develop using SuperSignal™ West Pico PLUS Chemiluminescent Substrate (Thermo Fisher) and ECL signal was recorded on X-Ray Films using a developer (Kodak).
Cells were stained with relevant antibodies for 30 min on ice and washed. […] The stained cells were analyzed with BDLSRII or Novocyte (ACEA biosciences). For cytokine receptor staining, control refers to fluorescence minus one control. Data were analyzed with FlowJo 10 Software.

[3] = system: WT BMDCs; test: Stimulation of WT BMDCs with recombinant TNF, intracellular pro-IL-1β by flow cytometry; conditions: recombinant TNFα 20 ng/mL, 6 h
Method: Mouse progenitors were isolated from bone marrow (femurs and tibias). Following RBC lysis, cells were plated at 0.75×10^6 mL^−1 in BMDC media (5% FCS containing complete RPMI+1% rGMCSF (Biolegend, 100 ng mL^−1). Media was replaced on day 2 and day 4 and cells were harvested for experiments on day 5 by gently flushing each well. For sorting of BMDC subpopulations, total BMDC cells were stained with fluorescent antibodies and FACS sorted as shown (FIG. 5g) For retroviral transduction, following RBC lysis cells were plated at 10×10^6 mL^−1 in 2 mL of retroviral supernatant containing […] polybrene. Cells were spinfected at 2500 rpm, 32° C., for 90 minutes, then 3 mL of BMDC media was added to each well and cells were incubated overnight. The next morning, ˜70% of the media was removed from the wells and spinfection was repeated with fresh retroviral supernatant. On day 5 cells were harvested for experiments.
Cells were stained with relevant antibodies for 30 min on ice and washed. For intracellular staining, Foxp3 staining buffer set (eBioscience; 00-5523-00) was used according to manufacturer's protocol. The stained cells were analyzed with BDLSRII or Novocyte (ACEA biosciences). For cytokine receptor staining, control refers to fluorescence minus one control. Data were analyzed with FlowJo 10 Software.

Row | Molecule | mature IL-1β (p17) in the supernatant (immunoblot, FIG. 4d) [1] | production of pro-IL-1β in BMDCs (immunoblot, FIG. 4d) [2] | synthesis of pro-IL-1β in wild-type BMDCs (FIG. 2k) [3]
1 | IETD | loss of mature IL-1β | did not affect | –
2 | recombinant TNF: rTNFα (Peprotech; 315-01Am, 20 ng/mL) (protein) LRSSSQNSSDKPVAHVVANHQVEEQLEWLSQRANALLANGMDLKDNQLVVPADGLYLVYSQVLFKGQGCPDYVLLTHTVSRFAISYQEKVNLLSAVKSPCPKDTPEGAELKPWYEPIYLGGVFQLEKGDQLSAEVNLPKYLDFAESGQVYFGVIAL | – | – | drove the synthesis
